The values below come from patent EP4790066A1, “GLP-1R/GIPR/GCGR TRIPLE AGONIST ANALOGUE AND USE THEREOF” (Shenzhen Bay Laboratory, priority 2023, dated 2025).

Common to all, as to assay type: cell-based
Experiment [1] deals with T1, GIPR (Homo sapiens, UniProt P48546).
T1 construct: expressed in transfected cells
T1 sequence (P48546 22-466): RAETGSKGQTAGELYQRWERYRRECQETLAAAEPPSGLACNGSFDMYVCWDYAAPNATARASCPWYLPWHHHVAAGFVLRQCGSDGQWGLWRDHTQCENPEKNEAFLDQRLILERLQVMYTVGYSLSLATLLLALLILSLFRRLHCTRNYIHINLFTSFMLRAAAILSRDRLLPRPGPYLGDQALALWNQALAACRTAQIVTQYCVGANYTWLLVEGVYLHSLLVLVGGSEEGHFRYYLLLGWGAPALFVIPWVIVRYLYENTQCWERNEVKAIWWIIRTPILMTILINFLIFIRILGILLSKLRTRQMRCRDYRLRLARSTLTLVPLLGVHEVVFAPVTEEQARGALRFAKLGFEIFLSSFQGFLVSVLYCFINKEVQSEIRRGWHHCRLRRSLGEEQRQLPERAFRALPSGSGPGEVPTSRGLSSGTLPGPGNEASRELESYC
The experiment in a line: cAMP method (HTRF cAMP detection kit), HEK293/pGM-CREB-L-Luc/GIP pool. As to conditions: read-out: EC50 (pM) for each receptor GIPR. (Time-resolved FRET reads energy transfer from a long-lived donor to a nearby acceptor.)

Experiment [2] concerns the target T2, GCGR (Homo sapiens, UniProt P47871).
T2 construct: expressed in transfected cells
As to the kind of experiment: cAMP method (HTRF cAMP detection kit), HEK293/pGM-CREB-L-Luc/GCG pool. As to conditions: read-out: EC50 (pM) for each receptor GCGR.

The target of experiment [3] is T3, GLP-1R (Homo sapiens, UniProt P43220).
T3 construct: expressed in transfected cells
As to the kind of experiment: cAMP method (HTRF cAMP detection kit), HEK293/pGM-CREB-L-Luc/GLP-1 pool. As to conditions: read-out: EC50 (pM) for each receptor GLP-1R. As for the experimental part:
2. Insulinotropic analogues can bind to target receptors on the cell membrane, activate the receptors, and induce release. The activity of the test substance can be determined using the HTRF method with a cAMP detection kit. Therefore, the cAMP method can be used to detect the target peptide derivatives (or polypeptide derivatives, i.e., TG1-TG86) prepared in Example 1 and Example 2. […] The test cell line was selected, treated with cAMP-specific trypsin for digestion. 3 mL of serum-free DMEM culture medium was added, and the cells were pipetted, resuspended, and counted. 5 µL of IBMX (prepared with serum-free DMEM medium, 0.5 mM) and test cells (5 µL/7500 cells/well) were added in a 384-well plate sequentially. The plate was incubated at 37°C under 5% CO2 for 30 min, followed by the addition of cAMP-d2 (5 µL, 1x) and Anti-cAMP-Cryptate (5 µL, 1x). The mixture was kept at room temperature for 1 h, after which the HTRF value was measured using a chemiluminescent microplate reader, and the determination result was recorded. […] Table 4: EC50 values for target peptide derivatives

The target in experiment [4] is T1, GIPR. The experiment in a line: CreLuc method (CRE-luciferase reporter), HEK293/pGM-CREB-L-Luc/GIPR pool. The following applies: 6 h incubation, read-out: EC50 (pM) for each receptor GIPR. In a few lines:
(§1)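 Stable HEK293 pools co-expressing each receptor with a CRE-luciferase reporter were plated at 20,000 cells/well in freestyle medium and treated with compound dilution series for 6 h at 37 °C. Luminescence was read with ONE-GLO to derive EC50.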
For orientation: A reporter such as luciferase makes a cellular process visible.

Experiment [5] addresses T3, GLP-1R. The experiment in a line: CreLuc method (CRE-luciferase reporter), HEK293/pGM-CREB-L-Luc/GLP-1R pool. The following applies: 6 h incubation, read-out: EC50 (pM) for each receptor GLP-1R. The essentials:
as §1

In experiment [6] the target is T2, GCGR. As to the kind of experiment: CreLuc method (CRE-luciferase reporter), 293HEK/pGM-CREB-L-Luc/GCGR pool. As to conditions: 6 h incubation, read-out: EC50 (pM) for each receptor GCGR. The essentials: as §1

T2 sequence (P47871 26-477, species assumed): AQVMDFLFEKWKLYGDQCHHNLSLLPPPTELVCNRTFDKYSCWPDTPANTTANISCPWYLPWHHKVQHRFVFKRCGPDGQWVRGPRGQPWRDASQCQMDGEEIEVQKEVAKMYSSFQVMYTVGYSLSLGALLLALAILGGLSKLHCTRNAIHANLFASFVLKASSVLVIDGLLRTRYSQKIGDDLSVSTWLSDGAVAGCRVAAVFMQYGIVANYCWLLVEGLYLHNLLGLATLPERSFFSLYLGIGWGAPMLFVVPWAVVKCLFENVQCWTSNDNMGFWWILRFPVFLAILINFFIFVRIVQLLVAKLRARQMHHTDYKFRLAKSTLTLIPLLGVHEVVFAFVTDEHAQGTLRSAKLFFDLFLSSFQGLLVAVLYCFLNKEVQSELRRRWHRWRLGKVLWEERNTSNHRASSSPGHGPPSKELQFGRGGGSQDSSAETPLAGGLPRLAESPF
T3 sequence (P43220 24-463, species assumed): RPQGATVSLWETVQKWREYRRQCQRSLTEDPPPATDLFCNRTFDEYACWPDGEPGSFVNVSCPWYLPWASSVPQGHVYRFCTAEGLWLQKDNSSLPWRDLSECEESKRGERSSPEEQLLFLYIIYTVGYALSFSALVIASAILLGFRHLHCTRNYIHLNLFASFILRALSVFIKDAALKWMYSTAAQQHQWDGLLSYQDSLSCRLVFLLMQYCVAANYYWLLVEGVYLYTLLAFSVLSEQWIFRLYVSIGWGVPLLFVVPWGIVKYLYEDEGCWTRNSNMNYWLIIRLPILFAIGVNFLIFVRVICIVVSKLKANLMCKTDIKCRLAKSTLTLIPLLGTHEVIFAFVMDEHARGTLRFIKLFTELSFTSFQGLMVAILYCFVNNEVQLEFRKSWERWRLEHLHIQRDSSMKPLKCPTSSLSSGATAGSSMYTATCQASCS

By EC50 is commonly meant the concentration at which the effect is half-maximal. Consider `CC[C@H](C)[C@@H]1NC(=O)[C@H](Cc2ccccc2)NC(=O)[C@@H](NC(=O)C(C)(C)NC(=O)[C@H](CCC(N)=O)NC(=O)[C@H](C)NC(=O)[C@H](CCCCNC(C)=O)NC(=O)[C@H](CCCCN)NC(=O)[C@H](CC(=O)O)NC(=O)[C@H](CC(C)C)NC(=O)[C@](C)(CC(C)C)NC(=O)[C@@H](NC(=O)[C@H](CO)NC(=O)[C@H](Cc2ccc(O)cc2)NC(=O)[C@H](CC(=O)O)NC(=O)[C@H](CO)NC(=O)[C@@H](NC(=O)[C@H](Cc2ccccc2)NC(=O)[C@@H](NC(=O)CNC(=O)[C@H](CCC(N)=O)NC(=O)C(C)(C)NC(=O)[C@@H](N)Cc2ccc(O)cc2)[C@@H](C)O)[C@@H](C)O)[C@@H](C)CC)CSCC(=O)NCCN(C(=O)CCC(=O)NCCOCCOCC(=O)NCCOCCOCC(=O)NCCCC[C@H](NC(=O)CCCCCCCCCCCCCCCCCCC(=O)O)C(=O)O)CCNC(=O)CSC[C@@H](C(=O)NCC(=O)NCC(=O)N2CCC[C@H]2C(=O)N[C@@H](CO)C(=O)N[C@@H](CO)C(=O)NCC(=O)N[C@@H](C)C(=O)N2CCC[C@H]2C(=O)N2CCC[C@H]2C(=O)N2CCC[C@H]2C(=O)N[C@@H](CO)C(N)=O)NC(=O)[C@H](CC(C)C)NC(=O)[C@H](CC(C)C)NC(=O)[C@H](Cc2ccc(O)cc2)NC(=O)[C@H](CCC(=O)O)NC1=O` [TG15], for which the EC50 at GIPR [1] is 3.3 pM; on GCGR [2], 40.3 pM; at GLP-1R [3], 1.9 pM; at GIPR [4] it was 85.6 pM; on GLP-1R [5], 116 pM; at GCGR [6] it was 329 pM.

`CC[C@H](C)[C@@H]1NC(=O)[C@H](Cc2ccccc2)NC(=O)[C@@H](NC(=O)C(C)(C)NC(=O)[C@H](CCC(N)=O)NC(=O)[C@H](C)NC(=O)[C@H](CCC(N)=O)NC(=O)[C@H](CCCCN)NC(=O)[C@H](CC(=O)O)NC(=O)[C@H](CC(C)C)NC(=O)[C@](C)(CC(C)C)NC(=O)[C@@H](NC(=O)[C@H](CO)NC(=O)[C@H](Cc2ccc(O)cc2)NC(=O)[C@H](CC(=O)O)NC(=O)[C@H](CO)NC(=O)[C@@H](NC(=O)[C@H](Cc2ccccc2)NC(=O)[C@@H](NC(=O)CNC(=O)[C@H](CCC(N)=O)NC(=O)C(C)(C)NC(=O)[C@@H](N)Cc2ccc(O)cc2)[C@@H](C)O)[C@@H](C)O)[C@@H](C)CC)CSCC(=O)NCCN(C(=O)CCC(=O)NCCOCCOCC(=O)NCCOCCOCC(=O)NCCCC[C@H](NC(=O)CCCCCCCCCCCCCCCCCCC(=O)O)C(=O)O)CCNC(=O)CSC[C@@H](C(=O)NCC(=O)NCC(=O)N2CCC[C@H]2C(=O)N[C@@H](CO)C(=O)N[C@@H](CO)C(=O)NCC(=O)N[C@@H](C)C(=O)N2CCC[C@H]2C(=O)N2CCC[C@H]2C(=O)N2CCC[C@H]2C(=O)N[C@@H](CO)C(N)=O)NC(=O)[C@H](CC(C)C)NC(=O)[C@H](CC(C)C)NC(=O)[C@H](Cc2ccc(O)cc2)NC(=O)[C@H](CCC(=O)O)NC1=O` [TG30]: the EC50 came out at 3.2 pM at GIPR [1]; 28.7 pM on GCGR [2]; 2.5 pM on GLP-1R [3]; 45.3 pM at GIPR [4]; 47.8 pM at GLP-1R [5]; 347 pM on GCGR [6].
